Measured values as given in patent US20160244404A1, “OPTICAL ISOMERS OF (+) AND (-)-BENZHYDRYL UREAS AND (+) AND (-)-1-[(3-CHLOROPHENYL)-PHENYL-METHYL] UREA, A PHARMACEUTICAL COMPOSITION BASED THEREON AND A METHOD FOR PRODUCING SAID OPTICAL ISOMERS” (priority 2013, published 2016).
Marks after values point to notes of the source that are not given here.

Legend:
[1] = system: convulsions induced by pentylenetetrazol; assay: Anticonvulsant potency against convulsions induced by pentylenetetrazol; assay type: in vivo; conditions: for mean convulsions score compared with that of the reference sample: all doses studied: 100 mg/kg, 150 mg/kg, 250 mg/kg; for anticonvulsive potency compared with the reference substance: on the basis of mean convulsions scores, 100, 150, 250 mg/kg; for Protection against stage 3 convulsions (% protection) / Protection against stage 4 convulsions (% protection) / Protection against stage 5 convulsions (% protection) / convulsive manifestations (points) induced by pentylenetetrazol (X ± SE): n = 10; for convulsive manifestations (points) induced by pentylenetetrazol (X ± SE): five-point scale
Experimental: (§1) Convulsions were induced by the administration of pentylenetetrazol. The severity (stage) of the convulsions was rated on a five-point scale. The anticonvulsant potency was rated on the basis of the substance's ability to reduce the severity of convulsions induced by the pentylenetetrazol. Halodif substances were administered intragastrically over 2 hr prior to the pentylenetetrazol. The pentylenetetrazol was administered subcutaneously. Probit analysis was used for statistical processing of the results with Student's test, ANOVA and criterion x. The differences in the results were considered statistically reliable at a significance level of p<0.05.
In the second phase the anticonvulsant potency of the reference substance was study in doses of 50 mg/kg, 100 mg/kg, 150 mg/kg, 200 mg/kg and 500 mg/kg (Table 2). The reference substance was racemic halodif. […] The halodif reference substance was used in doses of 50 mg/kg, 100 mg/kg, 150 mg/kg, 200 mg/kg and 500 mg/kg. Two hours after the halodif substance was administered to the animals the pentylenetetrazol (110 mg/kg) was administered and stage 3 and stage 5 convulsions were rated.
Samples were compared on the basis of the mean score for convulsive manifestations induced by pentylenetetrazol after administration of the samples under study.
The anticonvulsive potency of the samples of the halodif substance under study were also compared with respect to the proportion of animals in which the substance under study prevented the development of convulsions of differing severity induced by pentylenetetrazol. Table 4 presents the results expressed as the percentage of animals in which no convulsions of the specified stage developed (% protection).

[2] = system: animals; assay: Establishing the convulsion-inducing dose of pentylenetetrazol; assay type: in vivo
Experimental: as §1
In the first phase of the study the optimum convulsion-inducing dose of pentylenetetrazol, CD97, which was 110 mg/kg (Table 1) was established.

[3] = sample dose 100 mg/kg 2 hours before pentylenetetrazol 110 mg/kg
[4] = sample dose 100 mg/kg 2 hours before pentylenetetrazol 110 mg/kg, listed as Sample 4/(+) isomer
[5] = sample dose 100 mg/kg intragastrically 2 hours before pentylenetetrazol 110 mg/kg
[6] = sample dose 150 mg/kg 2 hours before pentylenetetrazol 110 mg/kg
[7] = sample dose 150 mg/kg intragastrically 2 hours before pentylenetetrazol 110 mg/kg
[8] = sample dose 250 mg/kg 2 hours before pentylenetetrazol 110 mg/kg
[9] = sample dose 250 mg/kg 2 hours before pentylenetetrazol 110 mg/kg, listed as Sample 4/(+)isomer
[10] = sample dose 250 mg/kg intragastrically 2 hours before pentylenetetrazol 110 mg/kg
[11] = doses of 100 mg/kg and 150 mg/kg, stages 3 and 4
[12] = reference substance 50 mg/kg intragastrically 2 h before pentylenetetrazol 110 mg/kg
[13] = reference substance 100 mg/kg intragastrically 2 h before pentylenetetrazol 110 mg/kg
[14] = reference substance 150 mg/kg intragastrically 2 h before pentylenetetrazol 110 mg/kg
[15] = reference substance 200 mg/kg intragastrically 2 h before pentylenetetrazol 110 mg/kg
[16] = reference substance 500 mg/kg intragastrically 2 h before pentylenetetrazol 110 mg/kg
[17] = pentylenetetrazol dose 90, 5 animals in the group
[18] = pentylenetetrazol dose 100, 5 animals in the group
[19] = pentylenetetrazol dose 110, 5 animals in the group
[20] = sample dose 100 mg/kg 2 hours before pentylenetetrazol 110 mg/kg, listed as Sample 2/(−) isomer
[21] = sample dose 150 mg/kg 2 hours before pentylenetetrazol 110 mg/kg, listed as Sample 2/(−) isomer
[22] = sample dose 250 mg/kg 2 hours before pentylenetetrazol 110 mg/kg, listed as Sample 2/(−) isomer

NC(=O)N[C@H](c1ccccc1)c1cccc(Cl)c1 [Sample 3/(+) isomer, (+)-1-[(3-chlorophenyl)-phenyl-methyl]urea]
mean convulsions score compared with that of the reference sample [1]: lower convulsions score
protection against convulsions, comparison of the samples ([1]; all stages (3, 4 and 5)): greater protection
anticonvulsive potency compared with its optical antipode ([1]; in vivo): higher anticonvulsive potency
anticonvulsive potency compared with the reference substance [1]: more anticonvulsive potency
Protection against stage 3 convulsions (% protection) [1, 3]: 30%
Protection against stage 4 convulsions (% protection) [1, 3]: 60%
Protection against stage 5 convulsions (% protection) [1, 3]: 80%
Protection against stage 3 convulsions (% protection) [1, 4]: 20%
Protection against stage 4 convulsions (% protection) [1, 4]: 80%
Protection against stage 5 convulsions (% protection) [1, 4]: 100%
convulsive manifestations (points) induced by pentylenetetrazol (X ± SE) [1, 5]: 3.2 ± 0.42 points
convulsive manifestations (points) induced by pentylenetetrazol (X ± SE) ([1]; sample dose 100 mg/kg intragastrically 2 hours before pentylenetetrazol 110 mg/kg, listed as Sample 4/(+) isomer): 3.0 ± 0.21 points
Protection against stage 3 convulsions (% protection) [1, 6]: 40%
Protection against stage 4 convulsions (% protection) [1, 6]: 90%
Protection against stage 5 convulsions (% protection) [1, 6]: 100%
Protection against stage 3 convulsions (% protection) ([1]; sample dose 150 mg/kg 2 hours before pentylenetetrazol 110 mg/kg, listed as Sample 4/(+)isomer): 30%
convulsive manifestations (points) induced by pentylenetetrazol (X ± SE) [1, 7]: 2.5 ± 0.31 points
convulsive manifestations (points) induced by pentylenetetrazol (X ± SE) ([1]; sample dose 150 mg/kg intragastrically 2 hours before pentylenetetrazol 110 mg/kg, listed as Sample 4/(+) isomer): 2.6 ± 0.31 points
Protection against stage 3 convulsions (% protection) [1, 8]: 70%
Protection against stage 4 convulsions (% protection) [1, 8]: 100%
Protection against stage 5 convulsions (% protection) [1, 8]: 100%
Protection against stage 3 convulsions (% protection) [1, 9]: 50%
Protection against stage 4 convulsions (% protection) [1, 9]: 90%
convulsive manifestations (points) induced by pentylenetetrazol (X ± SE) [1, 10]: 1.9 ± 0.28 points
convulsive manifestations (points) induced by pentylenetetrazol (X ± SE) ([1]; sample dose 250 mg/kg intragastrically 2 hours before pentylenetetrazol 110 mg/kg, listed as Sample 4/(+) isomer): 2.5 ± 0.27 points

NC(=O)NC(c1ccccc1)c1cccc(Cl)c1 (racemic) [Reference sample, 1-[(3-chlorophenyl)-phenyl-methyl]urea, reference compound]
appearance of stage 5 convulsions ([1]; dose 200 mg/kg and higher, pentylenetetrazol 110 mg/kg): completely prevented
protection compared with samples 1 and 2 ((−)-isomer of halodif) [1, 11]: reliably higher protection
protection compared with samples 3 and 4 ((+)-isomer of halodif) [1, 11]: reliably lower protection
animals protected from tonic convulsions in all extremities (stage 5) ([1]; lowest dose (50 mg/kg), pentylenetetrazol 110 mg/kg): 20%
Proportion of animals with stage 3 convulsions (%, n = 5) [1, 12]: 100%
Proportion of animals with stage 5 convulsions (%, n = 5) [1, 12]: 80%
Proportion of animals with stage 3 convulsions (%, n = 5) [1, 13]: 100%
Proportion of animals with stage 5 convulsions (%, n = 5) [1, 13]: 20%
Proportion of animals with stage 3 convulsions (%, n = 5) [1, 14]: 70%
Proportion of animals with stage 5 convulsions (%, n = 5) [1, 14]: 10%
Proportion of animals with stage 3 convulsions (%, n = 5) [1, 15]: 60%
Proportion of animals with stage 5 convulsions (%, n = 5) [1, 15]: 0%
Proportion of animals with stage 3 convulsions (%, n = 5) [1, 16]: 60%
Proportion of animals with stage 5 convulsions (%, n = 5) [1, 16]: 0%
Protection against stage 3 convulsions (% protection) [1, 3]: 20%
Protection against stage 4 convulsions (% protection) [1, 3]: 50%
Protection against stage 5 convulsions (% protection) [1, 3]: 80%
convulsive manifestations (points) induced by pentylenetetrazol (X ± SE) [1, 5]: 3.5 ± 0.31 points
Protection against stage 3 convulsions (% protection) [1, 6]: 30%
Protection against stage 4 convulsions (% protection) [1, 6]: 70%
Protection against stage 5 convulsions (% protection) [1, 6]: 90%
convulsive manifestations (points) induced by pentylenetetrazol (X ± SE) [1, 7]: 2.9 ± 0.28 points
Protection against stage 3 convulsions (% protection) [1, 8]: 50%
Protection against stage 4 convulsions (% protection) [1, 8]: 80%
Protection against stage 5 convulsions (% protection) [1, 8]: 100%
convulsive manifestations (points) induced by pentylenetetrazol (X ± SE) [1, 10]: 2.6 ± 0.33 points
animals in which development of clonic convulsions (stage 3 convulsions) was prevented ([1]; starting at a dose of 150 mg/kg, pentylenetetrazol 110 mg/kg): 30-40%

C1CCc2nnnn2CC1 [Pentylenetetrazol, pentylenetetrazol]
Number of animals with stage 3 convulsions ([2]; pentylenetetrazol dose 80 (no unit in table; mg/kg), 5 animals in the group): 0
Proportion of animals with stage 3 (%) ([2]; pentylenetetrazol dose 80, 5 animals in the group): 0%
Number of animals with stage 3 convulsions [2, 17]: 3
Proportion of animals with stage 3 (%) [2, 17]: 60%
Number of animals with stage 3 convulsions [2, 18]: 4
Proportion of animals with stage 3 (%) [2, 18]: 80%
Number of animals with stage 3 convulsions [2, 19]: 4
Proportion of animals with stage 3 (%) [2, 19]: 80%
optimum convulsion-inducing dose of pentylenetetrazol, CD97 ([2]; subcutaneous): 110 mg/kg

NC(=O)NC(c1ccccc1)c1cccc(Cl)c1 (single isomer, unassigned; (-)) [Sample 1/(−) isomer, (−)-1-[(3-chlorophenyl)-phenyl-methyl]urea]
mean convulsions score compared with that of the reference sample [1]: higher
anticonvulsive potency compared with the reference substance [1]: less anticonvulsive potency
Protection against stage 3 convulsions (% protection) [1, 3]: 10%
Protection against stage 4 convulsions (% protection) [1, 3]: 40%
Protection against stage 5 convulsions (% protection) [1, 3]: 60* %
Protection against stage 4 convulsions (% protection) [1, 20]: 20* %
Protection against stage 5 convulsions (% protection) [1, 20]: 70%
convulsive manifestations (points) induced by pentylenetetrazol (X ± SE) [1, 5]: 3.8 ± 0.39 points
convulsive manifestations (points) induced by pentylenetetrazol (X ± SE) ([1]; sample dose 100 mg/kg intragastrically 2 hours before pentylenetetrazol 110 mg/kg, listed as Sample 2/(−) isomer): 4.1 ± 0.23 points
convulsive manifestations (points) induced by pentylenetetrazol (X ± SE) ([1]; sample dose 100 mg/kg intragastrically 2 hours before pentylenetetrazol 110 mg/kg, listed as sample 1): 3.8±0.39 points
Protection against stage 3 convulsions (% protection) [1, 6]: 20%
Protection against stage 4 convulsions (% protection) [1, 6]: 70%
Protection against stage 5 convulsions (% protection) [1, 6]: 80%
Protection against stage 3 convulsions (% protection) [1, 21]: 10%
Protection against stage 4 convulsions (% protection) [1, 21]: 40* %
Protection against stage 5 convulsions (% protection) [1, 21]: 70%
convulsive manifestations (points) induced by pentylenetetrazol (X ± SE) [1, 7]: 2.9 ± 0.29 points
convulsive manifestations (points) induced by pentylenetetrazol (X ± SE) ([1]; sample dose 150 mg/kg intragastrically 2 hours before pentylenetetrazol 110 mg/kg, listed as Sample 2/(−) isomer): 3.5 ± 0.22 points
Protection against stage 3 convulsions (% protection) [1, 8]: 40%
Protection against stage 4 convulsions (% protection) [1, 8]: 80%
Protection against stage 5 convulsions (% protection) [1, 8]: 100%
Protection against stage 3 convulsions (% protection) [1, 22]: 30%
Protection against stage 4 convulsions (% protection) [1, 22]: 70%
convulsive manifestations (points) induced by pentylenetetrazol (X ± SE) [1, 10]: 2.8 ± 0.41 points
convulsive manifestations (points) induced by pentylenetetrazol (X ± SE) ([1]; sample dose 250 mg/kg intragastrically 2 hours before pentylenetetrazol 110 mg/kg, listed as Sample 2/(−) isomer): 3.0 ± 0.37 points
convulsive manifestations (points) induced by pentylenetetrazol (X ± SE) ([1]; sample dose 250 mg/kg intragastrically 2 hours before pentylenetetrazol 110 mg/kg, listed as sample 1): 2.8±0.41 points
